Where two headings read alike, the source gives them in different places.
System: cultured ventricular myocytes
Assay: cAMP content of cultured ventricular myocytes (125I-cAMP RIA)
Format: cell-based, rat
Conditions: Rattus norvegicus, Ventricular myocyte
Procedure: When myocytes were to be used for biochemical studies, each of the culture dishes was preincubated for 2 hours with 1 ml of MEM containing 33 μg of laminin in a 37° C. incubator gassed with 5% CO2 in room air. The laminin solution was removed prior to myocyte seeding. After seeding, the dishes were incubated for an additional 2 hours. The settling and short term culture procedures were performed to purify the myocytes so that >95% of the myocytes adhering to the dishes were rod shaped.
Cyclic AMP levels were determined in cultures of ventricular myocytes according to the following method. After the 2-hour incubation period, the MEM was aspirated and replaced with 2 ml of fresh MEM. Adenosine agonists, ISO, or adenosine antagonists were added to the medium bathing the cells at the concentrations and times indicated. The experiment was terminated by removing the medium from the dish and adding 200 μl of 1N HCl over the cultured myocyte surface. The dishes were then frozen in liquid N2 and stored at -70° C. or held on ice momentarily until extraction was initiated.
For assay, the contents of the dishes were transferred (using 1 ml of distilled/deionized H2 O) into microcentrifuge tubes. The extracts were heated for 1 hour at 57° C. and sonicated for 10 minutes. The extracts were then centrifugated at 14,000 x g for 15 minutes. The supernatant was removed, evaporated, reconstituted in 500 μl of 50 mM sodium acetate buffer and assayed for cAMP using an ^125 I-cAMP RIA kit (Amersham). The pellet was solubilized with 0.1N NaOH and protein determined. The cAMP values are reported in pmol cAMP/mg protein of the extract pellet (total cell protein). This cAMP assay procedure routinely provided recovery values in excess of 90%.

[1] = 10 min, read-out: increase in myocyte cAMP

| SMILES | activation at 0.1 µM (1 min, ISO at 0.1 μM for 1 minutes, read-out: increase in myocyte cAMP over basal) [%] | activation at 1 µM (1 min, ISO at 1 μM for 1 minutes, read-out: increase in myocyte cAMP over basal) [%] | activation at 1 µM [1] [%] | activation at 10 µM [1] [%] | EC50 (10 min, read-out: EC50 for increase in myocyte cAMP) [nM] |
| --- | --- | --- | --- | --- | --- |
| CC(C)NCC(O)c1ccc(O)c(O)c1 (centres unmarked) [ISO, isoproterenol] | 90 | 138 | – | – | – |
| CCNC(=O)[C@H]1O[C@@H](n2cnc3c(N)nc(NCCc4ccc(CCC(=O)O)cc4)nc32)[C@H](O)[C@@H]1O [CGS-21680, 2-p-(2-carboxy-ethyl)phenethyl-amino-5'-N-ethylcarboxamido-adenosine] | – | – | 77 | 174 | 1150 ± 370 |

Reference: patent publication US5629298A, “Adenosine as a positive inotrop in the compromised heart” (University of Massachusetts Medical Center, priority 1995, dated 1997)
